Legend:
[1] = Fraction unbound in mouse plasma; type: ADME, cell-free
[2] = Efflux ratio of permeability in human Caco2 cells; type: ADME, cell-based; conditions: Caco-2
[3] = Permeability of the compound at pH 7.4 by PAMPA; type: ADME; conditions: read-out: permeability
[4] = Fraction unbound in human plasma; type: ADME, cell-free
[5] = target: T1, Cytochrome P450 2C9 (Homo sapiens, UniProt P11712); experiment: Time-dependant inhibition of CYP2C9 in human liver microsomes; type: ADME
[6] = target: T2, Cytochrome P450 2C19 (Homo sapiens, UniProt P33261); experiment: Inhibition of CYP2C19 in human liver microsomes; type: ADME; conditions: human, microsomes
T2 sequence (P33261 whole entry): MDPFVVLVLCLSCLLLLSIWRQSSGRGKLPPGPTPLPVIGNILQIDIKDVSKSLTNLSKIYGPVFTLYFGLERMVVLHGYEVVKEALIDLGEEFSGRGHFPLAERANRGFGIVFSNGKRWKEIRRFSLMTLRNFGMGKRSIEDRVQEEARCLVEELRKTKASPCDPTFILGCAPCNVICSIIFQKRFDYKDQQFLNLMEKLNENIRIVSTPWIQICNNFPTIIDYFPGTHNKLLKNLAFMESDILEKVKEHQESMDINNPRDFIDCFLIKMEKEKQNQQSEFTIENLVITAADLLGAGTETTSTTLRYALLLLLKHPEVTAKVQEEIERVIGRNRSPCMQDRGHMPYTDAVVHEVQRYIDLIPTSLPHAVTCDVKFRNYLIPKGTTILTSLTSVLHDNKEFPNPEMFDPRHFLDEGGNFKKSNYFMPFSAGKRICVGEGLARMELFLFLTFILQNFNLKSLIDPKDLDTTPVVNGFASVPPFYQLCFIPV

[7] = Metabolic stability in rat liver microsomes assessed as parent compound remaining at 0.5 uM after 10 mins; type: ADME, Microsome; conditions: read-out: Stability
[8] = target: T3, Cytochrome P450 2B6 (Homo sapiens, UniProt P20813); experiment: Time-dependant inhibition of CYP2B6 in human liver microsomes; type: ADME
T3 sequence (P20813 whole entry): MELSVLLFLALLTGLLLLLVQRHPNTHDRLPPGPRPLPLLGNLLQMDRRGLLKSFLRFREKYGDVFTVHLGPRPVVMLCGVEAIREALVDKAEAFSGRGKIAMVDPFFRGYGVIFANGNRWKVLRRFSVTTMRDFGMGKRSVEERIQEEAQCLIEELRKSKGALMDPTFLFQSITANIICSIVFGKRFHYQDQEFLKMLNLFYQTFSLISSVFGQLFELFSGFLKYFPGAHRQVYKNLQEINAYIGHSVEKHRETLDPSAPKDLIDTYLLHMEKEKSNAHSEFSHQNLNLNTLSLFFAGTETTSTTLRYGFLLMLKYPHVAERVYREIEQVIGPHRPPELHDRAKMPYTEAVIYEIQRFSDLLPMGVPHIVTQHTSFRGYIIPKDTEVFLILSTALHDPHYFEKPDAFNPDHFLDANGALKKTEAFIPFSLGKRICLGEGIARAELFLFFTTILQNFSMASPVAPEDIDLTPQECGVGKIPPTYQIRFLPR

[9] = target: T1, Cytochrome P450 2C9; experiment: Inhibition of CYP2C9 in human liver microsomes; type: ADME; conditions: human, microsomes
[10] = Permeability of the compound at pH 5.5 by PAMPA; type: ADME; conditions: read-out: permeability
[11] = target: T4, Cytochrome P450 2C8 (Homo sapiens, UniProt P10632); experiment: Time-dependant inhibition of CYP2C8 in human liver microsomes; type: ADME
T4 sequence (P10632 whole entry): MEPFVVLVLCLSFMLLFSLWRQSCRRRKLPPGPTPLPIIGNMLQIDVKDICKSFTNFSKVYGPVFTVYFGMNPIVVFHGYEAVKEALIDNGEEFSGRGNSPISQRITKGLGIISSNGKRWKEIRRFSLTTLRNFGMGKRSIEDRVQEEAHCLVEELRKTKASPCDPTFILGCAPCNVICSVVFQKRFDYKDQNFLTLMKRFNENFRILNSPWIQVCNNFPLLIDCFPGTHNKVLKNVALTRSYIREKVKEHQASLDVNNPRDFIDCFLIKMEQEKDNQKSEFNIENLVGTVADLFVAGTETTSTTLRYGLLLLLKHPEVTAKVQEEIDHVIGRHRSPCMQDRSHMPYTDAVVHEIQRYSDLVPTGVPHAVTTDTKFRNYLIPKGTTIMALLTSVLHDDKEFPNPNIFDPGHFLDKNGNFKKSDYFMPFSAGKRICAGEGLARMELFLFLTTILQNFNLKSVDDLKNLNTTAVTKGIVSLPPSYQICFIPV

[12] = target: T5, Sodium channel protein type 9 subunit alpha (Homo sapiens, UniProt Q15858); experiment: Inhibition of human Nav1.7 expressed in HEK293 cells after 600 secs at -60 mV holding potential by ion works barracuda population patch clamp method; type: cell-based
T5 sequence (Q15858 whole entry): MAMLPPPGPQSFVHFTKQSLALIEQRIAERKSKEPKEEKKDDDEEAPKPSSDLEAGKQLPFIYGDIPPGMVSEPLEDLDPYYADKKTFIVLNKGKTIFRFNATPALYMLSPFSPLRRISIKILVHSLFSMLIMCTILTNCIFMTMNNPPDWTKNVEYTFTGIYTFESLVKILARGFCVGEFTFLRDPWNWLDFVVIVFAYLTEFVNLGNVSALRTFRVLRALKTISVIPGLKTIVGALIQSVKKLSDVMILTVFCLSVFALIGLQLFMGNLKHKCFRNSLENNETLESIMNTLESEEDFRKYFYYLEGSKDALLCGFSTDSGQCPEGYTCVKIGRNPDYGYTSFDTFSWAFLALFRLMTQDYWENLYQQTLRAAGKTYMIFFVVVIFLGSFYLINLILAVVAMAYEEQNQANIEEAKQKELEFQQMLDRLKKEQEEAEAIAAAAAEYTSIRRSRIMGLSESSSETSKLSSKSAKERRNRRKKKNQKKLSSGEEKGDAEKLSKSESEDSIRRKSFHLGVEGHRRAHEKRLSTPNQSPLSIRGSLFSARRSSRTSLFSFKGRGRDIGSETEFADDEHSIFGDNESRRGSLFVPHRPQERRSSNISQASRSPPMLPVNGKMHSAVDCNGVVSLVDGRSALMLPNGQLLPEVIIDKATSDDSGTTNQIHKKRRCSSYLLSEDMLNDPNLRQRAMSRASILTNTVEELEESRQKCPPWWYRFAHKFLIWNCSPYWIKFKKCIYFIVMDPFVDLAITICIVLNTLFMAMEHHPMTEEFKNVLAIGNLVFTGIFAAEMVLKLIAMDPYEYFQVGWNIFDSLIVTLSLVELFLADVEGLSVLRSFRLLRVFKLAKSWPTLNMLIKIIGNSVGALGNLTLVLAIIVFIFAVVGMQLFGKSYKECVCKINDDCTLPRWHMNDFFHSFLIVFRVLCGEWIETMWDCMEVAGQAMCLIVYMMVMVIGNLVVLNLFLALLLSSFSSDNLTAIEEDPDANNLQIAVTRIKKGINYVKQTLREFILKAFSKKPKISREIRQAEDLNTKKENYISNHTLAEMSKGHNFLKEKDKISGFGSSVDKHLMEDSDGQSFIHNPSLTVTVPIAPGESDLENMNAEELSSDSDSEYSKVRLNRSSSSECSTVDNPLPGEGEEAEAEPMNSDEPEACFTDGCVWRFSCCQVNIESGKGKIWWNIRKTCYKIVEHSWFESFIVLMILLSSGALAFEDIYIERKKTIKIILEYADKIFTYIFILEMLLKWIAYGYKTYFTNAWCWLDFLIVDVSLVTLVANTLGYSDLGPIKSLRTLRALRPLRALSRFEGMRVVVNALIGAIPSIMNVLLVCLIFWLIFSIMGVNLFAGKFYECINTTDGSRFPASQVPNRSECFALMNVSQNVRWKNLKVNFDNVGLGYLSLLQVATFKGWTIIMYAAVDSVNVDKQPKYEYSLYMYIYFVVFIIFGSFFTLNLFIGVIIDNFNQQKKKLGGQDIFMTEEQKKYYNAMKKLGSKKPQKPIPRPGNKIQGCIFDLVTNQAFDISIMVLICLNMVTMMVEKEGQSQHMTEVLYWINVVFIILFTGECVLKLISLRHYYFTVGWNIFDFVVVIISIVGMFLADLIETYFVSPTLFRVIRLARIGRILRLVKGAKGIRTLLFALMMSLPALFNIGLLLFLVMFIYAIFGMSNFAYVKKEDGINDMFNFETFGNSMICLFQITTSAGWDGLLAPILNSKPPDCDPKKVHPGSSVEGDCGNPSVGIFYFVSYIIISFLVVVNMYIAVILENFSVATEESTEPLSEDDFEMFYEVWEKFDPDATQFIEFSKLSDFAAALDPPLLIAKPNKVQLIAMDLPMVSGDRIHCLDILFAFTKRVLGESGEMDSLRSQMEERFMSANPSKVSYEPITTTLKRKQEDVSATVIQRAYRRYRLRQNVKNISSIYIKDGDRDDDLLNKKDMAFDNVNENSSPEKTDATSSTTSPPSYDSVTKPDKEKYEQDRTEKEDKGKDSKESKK

[13] = Metabolic stability in mouse liver microsomes assessed as parent compound remaining at 0.5 uM after 10 mins; type: ADME, Microsome; conditions: read-out: Stability
[14] = Permeability from basolateral to apical side in human Caco2 cells; type: ADME, cell-based; conditions: Caco-2, read-out: permeability
[15] = target: T2, Cytochrome P450 2C19; experiment: Time-dependant inhibition of CYP2C19 in human liver microsomes; type: ADME
[16] = target: T6, Cytochrome P450 2D6 (Homo sapiens, UniProt P10635); experiment: Inhibition of CYP2D6 in human liver microsomes; type: ADME; conditions: human, microsomes
T6 sequence (P10635 whole entry): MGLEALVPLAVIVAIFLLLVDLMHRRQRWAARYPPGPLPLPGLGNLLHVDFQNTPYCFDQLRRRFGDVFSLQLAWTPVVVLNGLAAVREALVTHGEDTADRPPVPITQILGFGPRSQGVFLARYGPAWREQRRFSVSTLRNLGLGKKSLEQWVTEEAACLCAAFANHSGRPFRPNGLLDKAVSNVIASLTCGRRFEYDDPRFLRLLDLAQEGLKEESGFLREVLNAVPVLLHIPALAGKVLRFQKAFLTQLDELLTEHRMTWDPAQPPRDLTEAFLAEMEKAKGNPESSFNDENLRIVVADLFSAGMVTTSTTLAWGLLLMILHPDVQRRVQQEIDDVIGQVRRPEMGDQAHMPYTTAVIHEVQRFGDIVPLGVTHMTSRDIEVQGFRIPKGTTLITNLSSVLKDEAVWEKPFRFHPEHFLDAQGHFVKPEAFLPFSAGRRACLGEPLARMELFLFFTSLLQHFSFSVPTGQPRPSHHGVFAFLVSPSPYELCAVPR

[17] = target: T7, Cytochrome P450 3A4 (Homo sapiens, UniProt P08684); experiment: Time-dependant inhibition of CYP3A4 in human liver microsomes; type: ADME
T7 sequence (P08684 whole entry): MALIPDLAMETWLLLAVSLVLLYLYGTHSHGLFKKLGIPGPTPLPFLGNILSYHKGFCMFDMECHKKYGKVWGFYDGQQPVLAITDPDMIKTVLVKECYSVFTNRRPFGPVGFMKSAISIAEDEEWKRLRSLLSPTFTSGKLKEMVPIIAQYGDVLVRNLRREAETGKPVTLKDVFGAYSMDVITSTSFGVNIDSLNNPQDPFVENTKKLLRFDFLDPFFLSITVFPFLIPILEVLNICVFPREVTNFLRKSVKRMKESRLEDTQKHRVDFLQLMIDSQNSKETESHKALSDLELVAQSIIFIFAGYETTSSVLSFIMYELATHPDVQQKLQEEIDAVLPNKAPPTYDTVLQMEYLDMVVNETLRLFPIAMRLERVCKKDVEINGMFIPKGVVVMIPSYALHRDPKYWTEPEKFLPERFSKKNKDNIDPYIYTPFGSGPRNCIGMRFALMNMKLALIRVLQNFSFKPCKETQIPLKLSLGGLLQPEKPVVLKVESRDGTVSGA

[18] = target: T5, Sodium channel protein type 9 subunit alpha; experiment: Inhibition of recombinant human Nav1.7 expressed in HEK293 cells at -70 mV holding potential by patch clamp electrophysiology method; type: cell-based
[19] = target: T4, Cytochrome P450 2C8; experiment: Inhibition of CYP2C8 in human liver microsomes; type: ADME; conditions: human, microsomes
[20] = target: T7, Cytochrome P450 3A4; experiment: Inhibition of CYP3A4 in human liver microsomes; type: ADME; conditions: human, microsomes
[21] = Permeability from apical to basolateral side in human Caco2 cells; type: ADME, cell-based; conditions: Caco-2, read-out: permeability
[22] = Metabolic stability in human liver microsomes assessed as parent compound remaining at 0.5 uM after 10 mins; type: ADME, Microsome; conditions: read-out: Stability
[23] = target: T6, Cytochrome P450 2D6; experiment: Time-dependant inhibition of CYP2D6 in human liver microsomes; type: ADME
[24] = target: T3, Cytochrome P450 2B6; experiment: Inhibition of CYP2B6 in human liver microsomes; type: ADME; conditions: human, microsomes
[25] = target: Sodium channel protein type 5 subunit alpha (Homo sapiens, UniProt Q14524); experiment: Inhibition of human Nav1.5 expressed in HEK293 cells after 600 secs at -50 mV holding potential by ion works barracuda population patch clamp method; type: cell-based

T1 sequence (P11712 whole entry): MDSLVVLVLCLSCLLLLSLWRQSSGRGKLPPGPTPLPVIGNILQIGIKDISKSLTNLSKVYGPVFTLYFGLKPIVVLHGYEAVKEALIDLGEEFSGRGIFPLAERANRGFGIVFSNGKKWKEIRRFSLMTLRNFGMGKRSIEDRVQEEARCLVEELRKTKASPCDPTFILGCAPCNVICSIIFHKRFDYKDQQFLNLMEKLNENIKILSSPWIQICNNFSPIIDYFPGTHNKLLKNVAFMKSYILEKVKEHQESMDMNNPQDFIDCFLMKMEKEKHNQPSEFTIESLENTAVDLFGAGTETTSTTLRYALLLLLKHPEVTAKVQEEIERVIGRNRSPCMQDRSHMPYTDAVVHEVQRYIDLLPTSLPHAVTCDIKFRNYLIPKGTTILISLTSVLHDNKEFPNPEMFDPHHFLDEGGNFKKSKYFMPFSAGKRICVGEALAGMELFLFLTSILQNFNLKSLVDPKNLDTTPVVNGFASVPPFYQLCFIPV

## Cn1cc(-c2ccc(C(F)(F)F)cc2)c2ccc(C(=O)NS(C)(=O)=O)cc21
[1]
  fraction unbound: < 0.001
[2]
  efflux ratio: > 5.1
[3]
  Papp: 17.1 ×10⁻⁶ cm/s
[4]
  fraction unbound: < 0.001
[5]
  TDI: Not Active
[6]
  inhibition (INH): Not Active
[7]
  remaining at 10 min, 0.5 µM: 74%
[8]
  TDI: Not Active
[9]
  inhibition (INH): Not Active
[10]
  Papp: 97.2 ×10⁻⁶ cm/s
[11]
  TDI: Not Active
[12]
  IC50: 88 nM
[13]
  remaining at 10 min, 0.5 µM: 54%
[14]
  Papp B→A: 7.6 ×10⁻⁶ cm/s
[15]
  TDI: Not Active
[16]
  inhibition (INH): Not Active
[17]
  TDI: Not Active
[18]
  IC50: 96 nM
[19]
  inhibition (INH): Not Active
[20]
  inhibition (INH): Not Active
[21]
  Papp A→B: < 1.5 ×10⁻⁶ cm/s
[22]
  remaining at 10 min, 0.5 µM: 100%
[23]
  TDI: Not Active
[24]
  inhibition (INH): Not Active

## Cn1cc(-c2cnc(OCC3CC3)c(Cl)c2)c2ccc(C(=O)NS(=O)(=O)C3CC3)cc21
[1]
  fraction unbound: 0.002
[2]
  efflux ratio: > 7.6
[3]
  Papp: 39.1 ×10⁻⁶ cm/s
[4]
  fraction unbound: < 0.001
[5]
  TDI: Not Active
[6]
  inhibition (INH): Not Active
[7]
  remaining at 10 min, 0.5 µM: 77%
[8]
  TDI: Not Active
[9]
  inhibition (INH): Not Active
[11]
  TDI: Not Active
[12]
  IC50: 82 nM
[13]
  remaining at 10 min, 0.5 µM: 93%
[14]
  Papp B→A: 11.4 ×10⁻⁶ cm/s
[15]
  TDI: Not Active
[16]
  inhibition (INH): Not Active
[17]
  TDI: Not Active
[18]
  IC50: 27 nM
[19]
  inhibition (INH): Not Active
[20]
  inhibition (INH): Not Active
[21]
  Papp A→B: < 1.5 ×10⁻⁶ cm/s
[22]
  remaining at 10 min, 0.5 µM: 97%
[23]
  TDI: Not Active
[24]
  inhibition (INH): Not Active

## CC(C)COc1ncc(-c2cn(C)c3cc(C(=O)NS(C)(=O)=O)c(F)cc23)cc1Cl
[1]
  fraction unbound: 0.002
[2]
  efflux ratio: 3.4
[3]
  Papp: 20.5 ×10⁻⁶ cm/s
[4]
  fraction unbound: 0.001
[5]
  TDI: Not Active
[6]
  inhibition (INH): Not Active
[7]
  remaining at 10 min, 0.5 µM: 85%
[8]
  TDI: Not Active
[9]
  inhibition (INH): Not Active
[10]
  Papp: 49.5 ×10⁻⁶ cm/s
[11]
  TDI: Not Active
[13]
  remaining at 10 min, 0.5 µM: 100%
[14]
  Papp B→A: 6.7 ×10⁻⁶ cm/s
[15]
  TDI: Not Active
[16]
  inhibition (INH): Not Active
[17]
  TDI: Not Active
[18]
  IC50: 1.1 nM
[19]
  inhibition (INH): Not Active
[20]
  inhibition (INH): Not Active
[21]
  Papp A→B: 2 ×10⁻⁶ cm/s
[22]
  remaining at 10 min, 0.5 µM: 100%
[23]
  TDI: Not Active
[24]
  inhibition (INH): Not Active

## Cn1nc(-c2ccc(C(F)(F)F)cc2)c2cc(F)c(C(=O)NS(=O)(=O)C3CC3)cc21
[1]
  fraction unbound: 0.008
[2]
  efflux ratio: > 21
[3]
  Papp: 10.2 ×10⁻⁶ cm/s
[5]
  TDI: Not Active
[6]
  inhibition (INH): Not Active
[7]
  remaining at 10 min, 0.5 µM: 100%
[8]
  TDI: Not Active
[9]
  inhibition (INH): Not Active
[10]
  Papp: 59.2 ×10⁻⁶ cm/s
[11]
  TDI: Not Active
[25]
  IC50: 6400 nM
[12]
  IC50: 13 nM
[13]
  remaining at 10 min, 0.5 µM: 100%
[14]
  Papp B→A: 31.2 ×10⁻⁶ cm/s
[15]
  TDI: Not Active
[16]
  inhibition (INH): Not Active
[17]
  TDI: Not Active
[18]
  IC50: 21 nM
[19]
  inhibition (INH): Not Active
[20]
  inhibition (INH): Not Active
[21]
  Papp A→B: < 1.5 ×10⁻⁶ cm/s
[22]
  remaining at 10 min, 0.5 µM: 100%
[23]
  TDI: Not Active
[24]
  inhibition (INH): Not Active

## Cn1cc(-c2ccc(C(F)(F)F)cc2)c2cc(F)c(C(=O)NS(C)(=O)=O)cc21
[1]
  fraction unbound: 0.005
[2]
  efflux ratio: 6.1
[3]
  Papp: 14 ×10⁻⁶ cm/s
[4]
  fraction unbound: 0.002
[5]
  TDI: Not Active
[6]
  inhibition (INH): Not Active
[7]
  remaining at 10 min, 0.5 µM: 99%
[8]
  TDI: Not Active
[9]
  inhibition (INH): Not Active
[10]
  Papp: 71.2 ×10⁻⁶ cm/s
[11]
  TDI: Not Active
[13]
  remaining at 10 min, 0.5 µM: 95%
[14]
  Papp B→A: 12.5 ×10⁻⁶ cm/s
[15]
  TDI: Not Active
[16]
  inhibition (INH): Not Active
[17]
  TDI: Not Active
[18]
  IC50: 13 nM
[19]
  inhibition (INH): Not Active
[20]
  inhibition (INH): Not Active
[21]
  Papp A→B: 2 ×10⁻⁶ cm/s
[22]
  remaining at 10 min, 0.5 µM: 97%
[23]
  TDI: Not Active
[24]
  inhibition (INH): Not Active

## CC(C)Cc1ccc(-c2cn(C)c3cc(C(=O)NS(C)(=O)=O)ccc23)cc1
[1]
  fraction unbound: 0.003
[2]
  efflux ratio: > 6.2
[4]
  fraction unbound: 0.001
[5]
  TDI: Not Active
[6]
  inhibition (INH): Not Active
[7]
  remaining at 10 min, 0.5 µM: 94%
[8]
  TDI: Not Active
[9]
  inhibition (INH): Not Active
[11]
  TDI: Not Active
[25]
  IC50: > 30000 nM
[13]
  remaining at 10 min, 0.5 µM: 100%
[14]
  Papp B→A: 7.8 ×10⁻⁶ cm/s
[15]
  TDI: Not Active
[16]
  inhibition (INH): Not Active
[17]
  TDI: Not Active
[18]
  IC50: 23 nM
[19]
  inhibition (INH): Not Active
[20]
  inhibition (INH): Not Active
[21]
  Papp A→B: < 1.5 ×10⁻⁶ cm/s
[22]
  remaining at 10 min, 0.5 µM: 100%
[23]
  TDI: Not Active
[24]
  inhibition (INH): Not Active
